One assay concerns the target KDR (Homo sapiens (Human), UniProt P35968). Kind of assay: KDR autophosphorylation ELISA in HUVEC cells. It is filed as cell-based. The following applies: cellular, VEGF165-stimulated, phospho-KDR ELISA. The gist of the method:
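Inhibition of VEGF165-induced KDR phosphorylation was determined in serum-starved HUVEC after 1 h compound pretreatment and 5 min stimulation with 100 ng/mL VEGF165. Lysate phospho-KDR was measured by ELISA; IC50 values came from a 4-parameter logistic fit of 8-point curves.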
On the technique in general: ELISA stands for enzyme-linked immunosorbent assay.

Assay [1] has as its target T1, Mer (Homo sapiens (Human), UniProt Q12866). Briefly: Human Mer kinase assay (33P radiometric, KinaseProfiler). The conditions noted are these: 10 μM ATP. In kind it is biochemical. As for the experimental part:
Kinase activity and compound inhibition were investigated using the ^33P-Phosphoryl transfer radiometric kinase assay, performed using the KinaseProfiler™ service of Eurofins Pharma Discovery Services UK Limited. Dose-response experiments were performed using nine compound concentrations in a 96-well microtiter plate. For each assay, all compounds were prepared to a 50× final assay concentration (50 μM) in 100% DMSO, then diluted in a half-log series, with the final top concentration at 1 μM. This working stock of the compound was added to the assay well as the first component in the reaction, followed by the remaining components as detailed in the following assay protocols below. The positive control wells (100% kinase activity) contain all components of the reaction including 2% DMSO (control for solvent effects), except the compound of interest. Blank wells contain all components of the reaction, with the reference inhibitor, staurosporine. This reference compound was used to abolish kinase activity and generated the 0% kinase activity base-line. IC50 values were calculated by nonlinear regression analysis using the sigmoidal dose-response (variable slope) curve fit on XLFit version 5.3 (ID Business Solutions).
Human Mer (residues R557-E882 with H628Q and R794A, 0.7 nM) was incubated with 8 mM MOPS pH 7.0, 0.2 mM EDTA, 30 mM NaCl, 250 μM GGMEDIYFEFMGGKKK (SEQ ID NO. 44), 10 mM magnesium acetate, and 10 μM [γ-^33P-ATP]. The reaction was initiated by the addition of the Mg/ATP mix. After incubation for 40 minutes at room temperature, the reaction was stopped by the addition of phosphoric acid to a concentration of 0.5%. A reaction aliquot of 10 μL was then spotted onto a P30 filtermat and washed four times for 4 minutes in 0.425% phosphoric acid and once in methanol prior to drying and scintillation counting. Incorporated ^33P was measured using the Wallac Microbeta scintillation counter (Perkin Elmer).
Target sequence in this assay (Q12866 557-882): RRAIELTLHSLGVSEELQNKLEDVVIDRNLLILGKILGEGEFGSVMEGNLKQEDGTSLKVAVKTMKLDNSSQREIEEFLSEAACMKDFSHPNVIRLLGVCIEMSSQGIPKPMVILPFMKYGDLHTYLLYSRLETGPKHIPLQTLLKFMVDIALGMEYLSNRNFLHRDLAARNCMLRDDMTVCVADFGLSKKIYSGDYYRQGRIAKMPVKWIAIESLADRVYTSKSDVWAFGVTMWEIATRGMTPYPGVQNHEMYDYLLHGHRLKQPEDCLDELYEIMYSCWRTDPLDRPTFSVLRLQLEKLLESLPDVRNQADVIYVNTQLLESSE

In assay [2] the target is T1, Mer. Briefly: Mer autophosphorylation ELISA in transient transfected 293A cells. In kind it is cell-based. The following applies: cellular, MERTK-transfected 293A cells, phospho-Mer ELISA. The gist of the method:
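293A cells transiently transfected with human MERTK DNA, then treated 1 h with 8-point compound dilutions in serum-free medium (0.3% DMSO). Phospho-Mer in lysates quantified by sandwich ELISA against phospho-Mer standard; normalised to DMSO (100%) and reference inhibitor (0%), IC50 from 4-parameter logistic fit.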
Target sequence in this assay (Q12866 21-999): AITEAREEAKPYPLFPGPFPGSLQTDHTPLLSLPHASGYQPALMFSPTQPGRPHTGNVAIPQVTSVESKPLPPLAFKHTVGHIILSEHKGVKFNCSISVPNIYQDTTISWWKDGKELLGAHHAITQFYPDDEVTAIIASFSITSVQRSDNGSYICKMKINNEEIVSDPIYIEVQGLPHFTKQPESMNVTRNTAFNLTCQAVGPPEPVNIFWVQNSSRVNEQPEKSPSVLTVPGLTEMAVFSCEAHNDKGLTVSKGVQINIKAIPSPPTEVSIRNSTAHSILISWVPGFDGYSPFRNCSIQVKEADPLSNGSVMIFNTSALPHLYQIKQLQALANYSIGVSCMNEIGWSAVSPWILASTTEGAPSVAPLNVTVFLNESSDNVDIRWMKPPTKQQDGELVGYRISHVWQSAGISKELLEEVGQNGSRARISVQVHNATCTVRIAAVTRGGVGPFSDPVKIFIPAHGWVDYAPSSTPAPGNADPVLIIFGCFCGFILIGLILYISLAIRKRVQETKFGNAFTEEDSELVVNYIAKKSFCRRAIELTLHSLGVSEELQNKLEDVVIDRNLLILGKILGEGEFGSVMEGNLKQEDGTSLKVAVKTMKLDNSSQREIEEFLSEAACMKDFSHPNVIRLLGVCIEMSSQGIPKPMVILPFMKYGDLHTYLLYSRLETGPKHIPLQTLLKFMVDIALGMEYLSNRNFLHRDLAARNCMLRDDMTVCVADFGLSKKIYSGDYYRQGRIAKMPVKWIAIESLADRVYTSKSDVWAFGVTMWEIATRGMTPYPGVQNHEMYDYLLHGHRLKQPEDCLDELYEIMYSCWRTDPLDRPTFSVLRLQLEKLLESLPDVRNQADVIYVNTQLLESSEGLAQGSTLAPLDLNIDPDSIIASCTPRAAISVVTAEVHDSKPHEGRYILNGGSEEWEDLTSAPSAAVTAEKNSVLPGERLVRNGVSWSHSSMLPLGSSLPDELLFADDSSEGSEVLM

KDR, sequence (P35968 20-1356): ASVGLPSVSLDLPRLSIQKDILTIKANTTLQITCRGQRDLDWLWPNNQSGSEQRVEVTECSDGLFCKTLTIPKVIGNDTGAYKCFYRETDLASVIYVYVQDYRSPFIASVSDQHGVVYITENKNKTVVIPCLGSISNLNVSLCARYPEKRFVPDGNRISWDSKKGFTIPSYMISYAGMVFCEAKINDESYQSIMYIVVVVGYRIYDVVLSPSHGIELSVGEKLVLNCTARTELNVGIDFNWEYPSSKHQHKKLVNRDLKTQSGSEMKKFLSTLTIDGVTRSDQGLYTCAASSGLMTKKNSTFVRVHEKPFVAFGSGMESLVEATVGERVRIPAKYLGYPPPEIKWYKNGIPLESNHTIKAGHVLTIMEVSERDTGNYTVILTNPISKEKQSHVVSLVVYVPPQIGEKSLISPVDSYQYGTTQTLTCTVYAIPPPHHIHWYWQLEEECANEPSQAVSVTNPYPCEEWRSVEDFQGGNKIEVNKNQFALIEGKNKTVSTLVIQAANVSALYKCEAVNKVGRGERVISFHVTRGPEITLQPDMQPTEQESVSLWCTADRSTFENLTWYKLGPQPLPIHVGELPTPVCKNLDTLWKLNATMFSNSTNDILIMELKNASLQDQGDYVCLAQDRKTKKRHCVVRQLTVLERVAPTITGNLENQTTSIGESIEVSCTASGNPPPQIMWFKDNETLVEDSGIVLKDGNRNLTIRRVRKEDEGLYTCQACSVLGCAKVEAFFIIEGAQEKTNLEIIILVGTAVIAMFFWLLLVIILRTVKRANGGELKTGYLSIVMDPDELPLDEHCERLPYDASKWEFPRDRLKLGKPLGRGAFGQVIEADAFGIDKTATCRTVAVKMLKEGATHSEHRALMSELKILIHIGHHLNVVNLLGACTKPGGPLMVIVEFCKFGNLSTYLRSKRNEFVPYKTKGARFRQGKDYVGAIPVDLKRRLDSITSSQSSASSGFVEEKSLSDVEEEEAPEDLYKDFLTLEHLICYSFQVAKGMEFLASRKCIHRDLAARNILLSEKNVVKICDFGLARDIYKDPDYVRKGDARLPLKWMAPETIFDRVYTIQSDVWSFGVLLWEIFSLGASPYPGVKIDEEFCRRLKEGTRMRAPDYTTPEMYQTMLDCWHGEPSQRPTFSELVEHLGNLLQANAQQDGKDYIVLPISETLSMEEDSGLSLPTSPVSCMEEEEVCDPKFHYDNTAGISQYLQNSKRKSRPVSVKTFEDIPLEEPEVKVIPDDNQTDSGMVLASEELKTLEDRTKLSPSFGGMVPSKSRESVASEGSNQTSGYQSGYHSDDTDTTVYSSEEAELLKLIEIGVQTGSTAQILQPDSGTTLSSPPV

With `CNC(=O)c1cc2c(Oc3ccc(NC(=O)C4(C(=O)Nc5ccc(F)cc5)CC4)cn3)ccnc2cc1OC` [Compound 17, 1-N-(4-Fluorophenyl)-1-N′-[6-[7-methoxy-6-(methylcarbamoyl)quinolin-4-yl]oxypyridin-3-yl]cyclopropane-1,1-dicarboxamide], the IC50 on KDR and against Mer [1] was 10 to 100 nM throughout.
Turning to `COc1cc2nccc(Oc3ccc(NC(=O)C4(C(=O)Nc5ccc(F)cc5)CC4)cn3)c2cc1C(N)=O` [Compound 16, 1-N′-[6-(6-Carbamoyl-7-methoxyquinolin-4-yl)oxypyridin-3-yl]-1-N-(4-fluorophenyl)-cyclopropane-1,1-dicarboxamide], the figures for the IC50 against KDR and on Mer [1] were 10 to 100 nM and at most 10 nM, respectively.
As to `COc1cc2nccc(Oc3ncc(NC(=O)C4(C(=O)Nc5ccc(F)cc5)CC4)cc3F)c2nc1OC` [Compound 82, 1-N′-[6-[(6,7-Dimethoxy-1,5-naphthyridin-4-yl)oxy]-5-fluoropyridin-3-yl]-1-N-(4-fluorophenyl)cyclopropane-1,1-dicarboxamide], the figures for the IC50 on KDR, against Mer [1] and at Mer [2] were above 300 nM, at most 10 nM and 10 to 100 nM, respectively.
For `COc1cc2nccc(Oc3ccc(NC(=O)C4(C(=O)Nc5ccc(F)cc5)CC4)cn3)c2cc1-c1cn[nH]c1` [Compound 60, 1-N-(4-Fluorophenyl)-1-N′-[6-[7-methoxy-6-(1H-pyrazol-4-yl)quinolin-4-yl]oxypyridin-3-yl]cyclopropane-1,1-dicarboxamide] the same measures were 100 to 300 nM, at most 10 nM and 10 to 100 nM.
Take `COc1cc2nccc(Oc3ccc(NC(=O)C4(C(=O)Nc5ccc(F)cc5)CC4)cn3)c2nc1OC` [Compound 81, 1-N′-[6-[(6,7-Dimethoxy-1,5-naphthyridin-4-yl)oxy]pyridin-3-yl]-1-N-(4-fluorophenyl)cyclopropane-1,1-dicarboxamide]: the IC50 on KDR was above 300 nM; at Mer [1], 10 to 100 nM.
On to `COC(=O)c1cc2c(Oc3ncc(NC(=O)C4(C(=O)Nc5ccc(F)cc5)CC4)cc3Cl)ccnc2cc1OC` [Compound 11, Methyl 4-[3-chloro-5-[[1-[(4-fluorophenyl)carbamoyl]cyclopropanecarbonyl]-amino]pyridin-2-yl]oxy-7-methoxyquinoline-6-carboxylate], for which the IC50 against KDR is above 300 nM; on Mer [1], at most 10 nM; at Mer [2], 10 to 100 nM.
For `COc1cc2nccc(Oc3ncc(NC(=O)C4(C(=O)Nc5ccc(F)cc5)CC4)cc3Cl)c2cc1C(N)=O` [Compound 18, 1-N′-[6-(6-Carbamoyl-7-methoxyquinolin-4-yl)oxy-5-chloropyridin-3-yl]-1-N-(4-fluorophenyl)cyclopropane-1,1-dicarboxamide] the same measures were above 300 nM, at most 10 nM and 10 to 100 nM.
`COc1cc2nccc(Oc3ncc(NC(=O)C4(C(=O)Nc5ccc(F)cc5)CC4)cc3Cl)c2nc1OC` [Compound 80, 1-N′-[5-Chloro-6-[(6,7-dimethoxy-1,5-naphthyridin-4-yl)oxy]pyridin-3-yl]-1-N-(4-fluorophenyl)cyclopropane-1,1-dicarboxamide]: the IC50 against KDR was above 300 nM; at Mer [1], 10 to 100 nM; at Mer [2], 100 to 300 nM.
In the case of `COC(=O)c1cc2c(Oc3ccc(NC(=O)C4(C(=O)Nc5ccc(F)cc5)CC4)cn3)ccnc2cc1OC` [Compound 10, Methyl 4-[5-[[1-[(4-fluorophenyl)carbamoyl]cyclopropanecarbonyl]-amino]pyridin-2-yl]oxy-7-methoxyquinoline-6-carboxylate], the IC50 on KDR is 10 to 100 nM; on Mer [1], at most 10 nM.

As a reminder, the IC50 is the concentration that inhibits the measured activity by half. The low end stands for greater potency, the high end for weaker potency.

Source of the values: patent US11673897B2, “Compounds for the treatment of kinase-dependent disorders” (Exelixis, Inc., priority 2018, dated 2023).
